Measured values taken from patent publication US20240277658A1, “NLRP3 ACTIVATORS FOR USE IN THE TREATMENT OF INFECTIOUS DISEASES OR CANCER BY ACTIVATING NLRP3 INFLAMMASOME” (ALBERT-LUDWIGS-UNIVERSITÄT FREIBURG, priority 2020, published 2024).

Columns and labels:
NLRP3 = experiment: Inflammasome stimulation (IL-1β, LDH release) in BMDCs from NLRP3 knockout or ASC knockout mice; format: cell-based, mouse; settings: IL-1β and LDH release
Protocol: (§1) For canonical inflammasome activation BMDCs after 7-9 days of differentiation were harvested and counted with a Neubauer Chamber (Hecht Assistant) and the concentration was set to 1 Mio cells ml^−1. 100 μl cell suspension per well were seeded in 96-well plates. The cells were primed with 50 ng ml^−1 E. coli K12 ultra-pure LPS for 3 hours and subsequently treated with canonical inflammasome activators or experimental compounds for 3 hours if not indicated differently (incubation time FIG. 4D, 5, 7, 8, 11, 13-18: 3 h, FIG. 12: 4 h). Concentrations of the stimuli were as follows if not indicated differently: 5 μM nigericin, 100 μM imiquimod (also known as R837), 100 μM CL097, 100 μM R848, […] poly(dA:dT), 300 μg ml^−1 MSU. If an inhibitor was used before stimuli treatment, the inhibitor was added after 2.5 hours of priming and it was incubated for 30 minutes before inflammasome activation. Inhibitors were used as follows: 3 μM MCC950, 45 mM KCl, 30 μM ebselen (2-Phenyl-1,2-benzoselenazol-3-one), 5 μM cytochalasin D (see FIGS. 8, 11, 12 and 17).
(§2) All inflammasome stimulations were performed in three technical replicates for each condition. Lytic cell death was determined via LDH release (see FIGS. 8, 13-16 and 18), cytokines quantified in cell-free supernatants via ELISA (see FIGS. 4D, 7-9, 11-19) and cell lysates and supernatants analyzed via immunoblotting (see FIGS. 5A and 5B) as previously described in detail (Gross, Olaf, 2012 “Measuring the inflammasome”, Methods in molecular biology, Clifton, N.J., 844, pp. 199-222. Schneider, Katharina S.; Thomas, Christina J.; Groß, Olaf, 2013, “Inflammasome activation and inhibition in primary murine bone marrow-derived cells, and assays for IL-1α, IL-1β, and caspase-1”, Methods in molecular biology, Clifton, N.J., 1040, pp. 117-135).

NLRP3 inflammasome = target: T1, NLRP3 inflammasome (Mus musculus, UniProt Q8R4B8); experiment: Inflammasome stimulation of BMDCs after pre-incubation with inhibitors (MCC950, KCl, ebselen, cytochalasin D); format: cell-based
T1 construct: endogenous in cells; host or cells: primary mouse bone marrow-derived dendritic cells (BMDCs), LPS-primed
T1 sequence (Q8R4B8 whole entry): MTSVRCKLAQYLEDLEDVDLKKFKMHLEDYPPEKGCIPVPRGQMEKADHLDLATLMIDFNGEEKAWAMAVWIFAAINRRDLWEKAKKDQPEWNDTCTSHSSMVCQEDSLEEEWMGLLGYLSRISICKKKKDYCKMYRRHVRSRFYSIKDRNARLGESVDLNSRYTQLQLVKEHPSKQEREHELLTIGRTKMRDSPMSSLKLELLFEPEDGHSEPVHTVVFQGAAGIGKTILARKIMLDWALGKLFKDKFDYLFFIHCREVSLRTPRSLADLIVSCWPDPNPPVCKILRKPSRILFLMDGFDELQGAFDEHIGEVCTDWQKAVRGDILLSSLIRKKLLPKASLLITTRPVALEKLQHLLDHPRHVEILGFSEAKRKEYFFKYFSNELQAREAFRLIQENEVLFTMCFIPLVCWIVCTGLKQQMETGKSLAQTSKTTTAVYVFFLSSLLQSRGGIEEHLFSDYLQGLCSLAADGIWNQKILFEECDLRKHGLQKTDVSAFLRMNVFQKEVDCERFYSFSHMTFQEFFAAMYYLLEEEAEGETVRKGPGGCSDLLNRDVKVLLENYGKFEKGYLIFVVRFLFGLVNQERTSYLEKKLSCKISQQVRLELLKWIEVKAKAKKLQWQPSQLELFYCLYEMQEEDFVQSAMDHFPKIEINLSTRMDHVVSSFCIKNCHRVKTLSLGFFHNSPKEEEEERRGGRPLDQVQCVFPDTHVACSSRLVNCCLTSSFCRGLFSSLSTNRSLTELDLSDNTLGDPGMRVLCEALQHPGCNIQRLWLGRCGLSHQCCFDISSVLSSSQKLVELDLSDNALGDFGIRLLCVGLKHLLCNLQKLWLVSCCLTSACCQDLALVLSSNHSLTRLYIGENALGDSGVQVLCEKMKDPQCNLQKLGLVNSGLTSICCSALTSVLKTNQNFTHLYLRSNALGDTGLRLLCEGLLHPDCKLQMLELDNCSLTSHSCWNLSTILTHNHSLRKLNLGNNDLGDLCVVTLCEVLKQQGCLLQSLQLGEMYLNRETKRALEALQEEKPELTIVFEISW
Protocol: as §1, with “Inhibitors were used as follows: 3 μM MCC950, 45 mM KCl, 30 μM ebselen (2-Phenyl-1,2-benzoselenazol-3-one), 5 μM cytochalasin D (see FIGS. 8, 11, 12 and 17).” left out
as §2

- dependence of NLRP3 inflammasome activation on potassium efflux from the cell (NLRP3 inflammasome; 50 mM extracellular KCl, FIGS. 11 and 17): independently of potassium efflux
- effect of the endocytosis inhibitor cytochalasin D on NLRP3 activation (NLRP3 inflammasome; LPS-primed wild-type BMDCs, FIG. 12): has no effect
- effect of the NLRP3-specific inhibitor MCC950 on inflammasome activation by the compound (NLRP3 inflammasome; wild-type BMDCs, compound 50 μM, FIG. 8): completely suppresses
SMILES: O=C(Nc1ccccc1)Nc1ccc2ncccc2c1 [EN22, 1-phenyl-3-(quinolin-6-yl)urea]
- characteristics of inflammasome activation in cells isolated from NLRP3 knockout mice (NLRP3): do not occur
